Reference: patent US8742106B2 (Novartis AG, priority 2009, dated 2014)
pKi: −log10 of the molar value.

Experiments:
human orexin 1 receptors = human orexin 1 receptors (Homo sapiens (Human), UniProt O43613); test: Calcium Accumulation in Cells (FLIPR), antagonism of orexin A; assay type: cell-based; details: for inhibition at 10 µM: measured at a concentration of 10 μM of compound, read-out: FLIPR hOx1R % inhibition value; for pKi: antagonism of orexin A, Cheng-Prusoff corrected, read-out: FLIPR hOx1R Ki
human orexin 2 receptors = human orexin 2 receptors (Homo sapiens (Human), UniProt O43614); test: as above; assay type: cell-based; details: for pKi: antagonism of orexin A, Cheng-Prusoff corrected, read-out: FLIPR hOx2R Ki; for inhibition at 10 µM: measured at a concentration of 10 μM of compound, read-out: FLIPR hOx2R % inhibition value
In short: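 Antagonism was measured as block of orexin A-evoked Ca²⁺ fluorescence (FLIPR), with orexin A added one hour after test compound (usually 10^−9–10^−5 M), which was first read alone for agonist activity. Human orexin 2 receptor cells were dye-loaded with 2 μM Fluo4-AM and 0.1 mM probenecid for 1 h.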

Chain of human orexin 2 receptors (O43614 whole entry): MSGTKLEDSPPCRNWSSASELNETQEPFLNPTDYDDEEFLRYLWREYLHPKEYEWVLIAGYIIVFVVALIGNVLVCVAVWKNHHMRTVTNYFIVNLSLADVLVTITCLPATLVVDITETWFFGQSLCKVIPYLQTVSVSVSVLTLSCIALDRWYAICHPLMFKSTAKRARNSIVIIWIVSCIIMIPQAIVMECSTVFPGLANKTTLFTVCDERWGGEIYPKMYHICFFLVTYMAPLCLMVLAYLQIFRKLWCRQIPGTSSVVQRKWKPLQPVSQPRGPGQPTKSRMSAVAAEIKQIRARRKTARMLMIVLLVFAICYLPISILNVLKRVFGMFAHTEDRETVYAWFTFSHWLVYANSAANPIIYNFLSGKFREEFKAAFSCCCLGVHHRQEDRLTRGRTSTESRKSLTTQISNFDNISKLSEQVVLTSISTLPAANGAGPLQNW
Chain of human orexin 1 receptors (O43613 whole entry): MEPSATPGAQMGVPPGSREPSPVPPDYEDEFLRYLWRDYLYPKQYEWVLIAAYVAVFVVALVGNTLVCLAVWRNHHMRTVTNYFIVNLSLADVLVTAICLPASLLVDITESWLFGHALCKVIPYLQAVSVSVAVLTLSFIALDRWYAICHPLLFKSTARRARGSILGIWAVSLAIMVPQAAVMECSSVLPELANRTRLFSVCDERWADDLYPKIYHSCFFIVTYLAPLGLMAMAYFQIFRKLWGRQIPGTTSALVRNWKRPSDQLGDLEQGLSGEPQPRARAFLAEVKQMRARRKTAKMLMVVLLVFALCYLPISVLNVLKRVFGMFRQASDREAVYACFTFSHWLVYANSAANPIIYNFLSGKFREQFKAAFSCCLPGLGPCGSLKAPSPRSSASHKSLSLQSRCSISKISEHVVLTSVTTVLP

| SMILES | inhibition at 10 µM (human orexin 1 receptors) | pKi (human orexin 2 receptors) | inhibition at 10 µM (human orexin 2 receptors) | pKi (human orexin 1 receptors) |
| --- | --- | --- | --- | --- |
| Cc1cc(OCC(=O)NCCc2c[nH]c3ccccc23)nc2c1c(C1CC1)nn2C [Example 7.5, N-(2-(1H-indol-3-yl)ethyl)-2-(3-cyclopropyl-1H-dimethyl-1H-pyrazolo[3,4-b]pyridin-6-yloxy)acetamide] | < 10% | 6.32 | – | – |
| Cc1cccnc1CNC(=O)COc1cc(C)c2c(C3CC3)nn(C)c2n1 [Example 7.18, 2-(3-cyclopropyl-1,4-dimethyl-1H-pyrazolo[3,4-b]pyridin-6-yloxy)-N-((3-methylpyridin-2-yl)methyl)acetamide] | < 10% | – | 11% | – |
| Cc1ccc([C@H](C)NC(=O)COc2nc3c(c(C4CC4)nn3C)c(C)c2C)cc1 [Example 6.75, (S)-2-(3-cyclopropyl-1,4,5-trimethyl-1H-pyrazolo[3,4-b]pyridin-6-yloxy)-N-(1-p-tolylethyl)acetamide] | – | 6.25 | – | 5.76 |
| C[C@H](NC(=O)COc1cc(C(F)(F)F)c2c(-c3cccc(Cl)c3)nn(C)c2n1)c1ccccc1 [Example 1.57, (S)-2-(3-(3-chlorophenyl)-1-methyl-4-(trifluoromethyl)-1H-pyrazolo[3,4-b]pyridin-6-yloxy)-N-(1-phenylethyl)acetamide] | – | 6.97 | – | 7.18 |
| CCn1cnnc1C(C)NC(=O)COc1cc(C(F)(F)F)c2c(-c3ccccc3)nn(C)c2n1 (stereo not shown) [Example 1.35, N-(1-(4-ethyl-4H-1,2,4-triazol-3-yl)ethyl)-2-(1-methyl-3-phenyl-4-(trifluoromethyl)-1H-pyrazolo[3,4-b]pyridin-6-yloxy)acetamide] | 22% | – | 22% | – |
| COc1ccccc1[C@H](C)NC(=O)COc1cc(C)c2c(C3CC3)nn(C)c2n1 [Example 7.13, (S)-2-(3-cyclopropyl-1,4-dimethyl-1H-pyrazolo[3,4-b]pyridin-6-yloxy)-N-(1-(2-methoxyphenyl)ethyl)acetamide] | – | 6.35 | – | 5.81 |
| Cc1cc(OCC(=O)N[C@H]2CCc3ccccc32)nc2c1c(C1CC1)nn2C [Example 1.75, (S)-2-(3-cyclopropyl-1,4-dimethyl-1H-pyrazolo[3,4-b]pyridin-6-yloxy)-N-(2,3-dihydro-1H-inden-1-yl)acetamide] | 27% | 6.09 | – | – |
| COc1ccc([C@H](C)NC(=O)COc2nc3c(c(C4CC4)nn3C)c(C)c2C)cc1 [Example 6.74, (S)-2-(3-cyclopropyl-1,4,5-trimethyl-1H-pyrazolo[3,4-b]pyridin-6-yloxy)-N-(1-(4-methoxyphenyl)ethyl)acetamide] | 23% | – | 38% | – |
| Cc1ccc2c(cnn2C)c1CNC(=O)COc1cc(C)c2c(C3CC3)nn(C)c2n1 [Example 7.31, 2-(3-cyclopropyl-1,4-dimethyl-1H-pyrazolo[3,4-b]pyridin-6-yloxy)-N-((1,5-dimethyl-1H-indazol-4-yl)methyl)acetamide] | – | 6.08 | – | 6.07 |
| Cc1cc(OCC(=O)NC(C)c2ccc3[nH]ccc3c2)nc2c1c(C1CC1)nn2C (stereo not shown) [Example 7.17, N-(1-(1H-indol-5-yl)ethyl)-2-(3-cyclopropyl-1,4-dimethyl-1H-pyrazolo[3,4-b]pyridin-6-yloxy)acetamide] | – | 7.03 | – | 6.38 |
| C[C@H](NC(=O)COc1cc(C(F)(F)F)c2c(-c3ccccn3)nn(C)c2n1)c1ccccc1 [Example 1.21, (S)-2-(1-methyl-3-(pyridin-2-yl)-4-(trifiuoromethyl)-1H-pyrazolo[3,4-b]pyridin-6-yloxy)-N-(1-phenylethyl)acetamide] | 38% | – | 29% | – |
| Cc1cc(OCC(=O)NC(C)c2nc3ccc(Cl)cc3s2)nc2c1c(C1CC1)nn2C (stereo not shown) [Example 7.30, N-(1-(6-chlorobenzo[d]thiazol-2-yl)ethyl)-2-(3-cyclopropyl-1,4-dimethyl-1H-pyrazolo[3,4-b]pyridin-6-yloxy)acetamide] | – | – | 26% | 6.03 |
| Cc1ccc(C(C)NC(=O)COc2cc(C(F)F)c3c(C4CC4)nn(C)c3n2)cn1 (stereo not shown) [Example 6.19, 2-(3-cyclopropyl-4-(difluoromethyl)-1-methyl-1H-pyrazolo[3,4-b]pyridin-6-yloxy)-N-(1-(6-methylpyridin-3-yl)ethyl)acetamide] | 41% | 6.10 | – | – |
| COc1ccccc1C(C)NC(=O)COc1cc(C(F)(F)F)c2c(-c3ccccc3)nn(C)c2n1 (stereo not shown) [Example 1.44, N-(1-(2-methoxyphenyl)ethyl)-2-(1-methyl-3-phenyl-4-(trifluoromethyl)-1H-pyrazolo[3,4-b]pyridin-6-yloxy)acetamide] | – | 6.80 | – | 6.56 |
| Cc1ccc([C@H](C)NC(=O)COc2cc(C)c3c(-c4cncn4C)nn(C)c3n2)cc1 [Example 4.11, (S)-2-(1,4-dimethyl-3-(1-methyl-1H-imidazol-5-yl)-1H-pyrazolo[3,4-b]pyridin-6-yloxy)-N-(1-p-tolylethyl)acetamide] | – | 5.79 | – | 5.36 |
| C[C@H](NC(=O)COc1cc(C(F)(F)F)c2c(-c3cccnc3)nn(C)c2n1)c1ccccc1 [Example 1.34, (S)-2-(1-methyl-3-(pyridin-3-yl)-4-(trifluoromethyl)-1H-pyrazolo[3,4-b]pyridin-6-yloxy)-N-(1-phenylethyl)acetamide] | – | 6.49 | – | 6.06 |

| SMILES | inhibition at 10 µM (human orexin 1 receptors) | pKi (human orexin 2 receptors) | inhibition at 10 µM (human orexin 2 receptors) | pKi (human orexin 1 receptors) |
| --- | --- | --- | --- | --- |
| Cn1nc(-c2ccccc2)c2c(C(F)(F)F)cc(OCC(=O)NCc3ccccc3)nc21 [Example 1.12, N-benzyl-2-(1-methyl-3-phenyl-4-(trifluoromethyl)-1H-pyrazolo[3,4-b]pyridin-6-yloxy)acetamide] | – | 5.86 | – | 5.60 |
| Cc1cc(OCC(=O)NCCc2ccccc2)nc2c1c(C1CC1)nn2C [Example 6.49, 2-(3-cyclopropyl-1,4-dimethyl-1H-pyrazolo[3,4-b]pyridin-6-yloxy)-N-phenethylacetamide] | 21% | 6.21 | – | – |
| Cc1ccc([C@H](C)NC(=O)COc2cc(C)c3c(-c4cc(C)nn4C)nn(C)c3n2)cc1 [Example 4.5, (S)-2-(3-(1,3-dimethyl-1H-pyrazol-5-yl)-1,4-dimethyl-1H-pyrazolo[3,4-b]pyridin-6-yloxy)-N-(1-p-tolylethyl)acetamide] | – | 6.03 | – | 6.17 |
| Cc1ccc(CNC(=O)COc2cc(C)c3c(C4CC4)nn(C)c3n2)cc1 [Example 6.66, 2-(3-cyclopropyl-1,4-dimethyl-1H-pyrazolo[3,4-b]pyridin-6-yloxy)-N-(4-methylbenzyl)acetamide] | – | 5.88 | – | 5.41 |
| CCCNC(=O)COc1cc(C(F)(F)F)c2c(-c3ccccc3)nn(C)c2n1 [Example 1.55, 2-(1-methyl-3-phenyl-4-(trifluoromethyl)-1H-pyrazolo[3,4-b]pyridin-6-yloxy)-N-propylacetamide] | 23% | 6.12 | – | – |
| Cc1ccc([C@H](C)NC(=O)COc2ccc3c(-c4ccccc4C)nn(C)c3n2)cc1 [Example 6.35, (S)-2-(1-methyl-3-o-tolyl-1H-pyrazolo[3,4-b]pyridin-6-yloxy)-N-(1-p-tolylethyl)acetamide] | – | 6.90 | – | 6.59 |
| Cc1nc(C(C)NC(=O)COc2cc(C(F)(F)F)c3c(-c4ccccc4)nn(C)c3n2)c(C)s1 (stereo not shown) [Example 1.40, N-(1-(2,5-dimethylthiazol-4-yl)ethyl)-2-(1-methyl-3-phenyl-4-(trifluoromethyl)-1H-pyrazolo[3,4-b]pyridin-6-yloxy)acetamide] | 37% | 5.54 | – | – |
| Cc1cc(OCC(=O)NCc2ccccc2Cl)nc2c1c(-c1ccccc1)nn2C [Example 1.14, N-(2-chlorobenzyl)-2-(1,4-dimethyl-3-phenyl-1H-pyrazolo[3,4-b]pyridin-6-yloxy)acetamide] | – | – | 33% | 6.37 |
| COc1ccc(C(C)NC(=O)COc2cc(C)c3c(C4CC4)nn(C)c3n2)cn1 (stereo not shown) [Example 6.47, 2-(3-cyclopropyl-1,4-dimethyl-1H-pyrazolo[3,4-b]pyridin-6-yloxy)-N-(1-(6-methoxypyridin-3-yl)ethyl)acetamide] | – | 6.13 | – | 5.83 |
| C[C@H](NC(=O)COc1cc(C(F)(F)F)c2c(C(C)(C)C)nn(C)c2n1)c1ccccc1 [Example 1.37, (S)-2-(3-tert-butyl-1-methyl-4-(trifluoromethyl)-1H-pyrazolo[3,4-b]pyridin-6-yloxy)-N-(1-phenylethyl)acetamide] | – | 6.53 | – | 5.71 |
| Cn1nc(-c2ccccc2)c2c(C(F)(F)F)cc(OCC(=O)NC3CCCCC3)nc21 [Example 1.9, N-cyclohexyl-2-(1-methyl-3-phenyl-4-(trifluoromethyl)-1H-pyrazolo[3,4-b]pyridin-6-yloxy)acetamide] | 32% | 5.60 | – | – |
| COc1cccc2c1CCCC2NC(=O)COc1cc(C)c2c(C3CC3)nn(C)c2n1 (stereo not shown) [Example 7.32, 2-(3-cyclopropyl-1,4-dimethyl-1H-pyrazolo[3,4-b]pyridin-6-yloxy)-N-(5-methoxy-1,2,3,4-tetrahydronaphthalen-1-yl)acetamide] | – | 6.52 | – | 6.86 |
| CNC(=O)COc1cc(C)c2c(C3CC3)nn(C)c2n1 [Example 6.52] | < 10% | – | < 10% | – |
| Cc1cc(OCC(=O)NC(C)c2ccncc2)nc2c1c(-c1ccccc1)nn2C (stereo not shown) [Example 1.63, 2-(1,4-dimethyl-3-phenyl-1H-pyrazolo[3,4-b]pyridin-6-yloxy)-N-(1-(pyridin-4-yl)ethyl)acetamide] | 27% | – | 34% | – |
| CCOc1ccc(CNC(=O)COc2cc(C)c3c(C4CC4)nn(C)c3n2)cc1 [Example 7.33, 2-(3-cyclopropyl-1,4-dimethyl-1H-pyrazolo[3,4-b]pyridin-6-yloxy)-N-(4-ethoxybenzyl)acetamide] | – | – | 24% | 5.50 |
| Cc1ccc(C(C)NC(=O)COc2cc(C)c3c(C4CC4)nn(C)c3n2)cn1 (stereo not shown) [Example 6.55] | 53% | 6.28 | – | – |
